Tested on: SW480
Experiment: drug sensitivity score (DSS, integrated dose-response area); higher = more sensitive (stronger viability reduction); extreme values may be limits of the assay
In short: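 SW480 cells stably carrying doxycycline-inducible control or SND1-targeting shRNA were induced with 0.1 µg/mL doxycycline for 7 days. They were then plated at 1000 cells per well in 384-well plates holding 525 commercially available small-molecule inhibitors at five concentrations. Viability was read with CellTiter-Glo after 72 h. The drug sensitivity score integrates the area under a fitted non-linear dose–response model.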

[1] = shRNA: SND1 shRNA1 (SND1 silenced)
[2] = shRNA: SND1 shRNA2 (SND1 silenced)
[3] = shRNA: control shRNA (non-targeting)

NC1(c2ccc(-c3nc4ccn5c(=O)[nH]nc5c4cc3-c3ccccc3)cc2)CCC1 [MK-2206]
drug sensitivity score [1]: 3.5 DSS | drug sensitivity score [2]: 4.4 DSS | drug sensitivity score [3]: 3.6 DSS

CC[C@@H]1C(=O)OC[C@@H]1Cc1cncn1C [Pilocarpine]
drug sensitivity score [1]: 0.6 DSS | drug sensitivity score [2]: 0 DSS | drug sensitivity score [3]: 0.2 DSS

C[C@@H](C(=O)O)c1ccc(-c2ccccc2)c(F)c1 [Tarenflurbil]
drug sensitivity score [1]: 0 DSS | drug sensitivity score [2]: 0 DSS | drug sensitivity score [3]: 0 DSS

CN(C)/N=N/c1[nH]cnc1C(N)=O [Dacarbazine]
drug sensitivity score [1]: 0 DSS | drug sensitivity score [2]: 1.9 DSS | drug sensitivity score [3]: 0.7 DSS

Cc1ccc(NC(=O)c2ccc(CN3CCN(C)CC3)cc2)cc1Nc1nccc(-c2cccnc2)n1 [Imatinib]
drug sensitivity score [1]: 0.7 DSS | drug sensitivity score [2]: 1.4 DSS | drug sensitivity score [3]: 2.5 DSS

CNC(=O)c1ccc2cc([C@@]3(O)CCn4cncc43)ccc2c1 [Orteronel]
drug sensitivity score [1]: 0 DSS | drug sensitivity score [2]: 0 DSS | drug sensitivity score [3]: 0 DSS

CCc1c(C(=O)C(N)=O)c2c(OCC(=O)O)cccc2n1Cc1ccccc1 [Varespladib]
drug sensitivity score [1]: 0 DSS | drug sensitivity score [2]: 1.1 DSS | drug sensitivity score [3]: 0 DSS

O=C1CN2Cc3c(ccc(Cl)c3Cl)N=C2N1 [Anagrelide]
drug sensitivity score [1]: 0 DSS | drug sensitivity score [2]: 0 DSS | drug sensitivity score [3]: 0 DSS

Nc1nccc(-c2c(-c3ccc(F)cc3)ncn2C2CCCCC2)n1
drug sensitivity score [1]: 0.8 DSS | drug sensitivity score [2]: 0.4 DSS | drug sensitivity score [3]: 0.8 DSS

Cc1cc(-c2ncc(-c3cccnc3)cc2/C=C/c2ccccc2)cnc1-c1cccnc1 [Pyridoclax]
drug sensitivity score [1]: 4.1 DSS | drug sensitivity score [2]: 2.7 DSS | drug sensitivity score [3]: 0.2 DSS

COc1cc([C@@H]2c3cc4c(cc3[C@@H](O[C@@H]3O[C@@H]5CO[C@@H](c6cccs6)O[C@H]5[C@H](O)[C@H]3O)[C@H]3COC(=O)[C@H]23)OCO4)cc(OC)c1O [Teniposide]
drug sensitivity score [1]: 9.1 DSS | drug sensitivity score [2]: 6 DSS | drug sensitivity score [3]: 7.8 DSS

Oc1nc(-c2ccc(C(F)(F)F)cc2)nc2c1CSCC2 [XAV-939]
drug sensitivity score [1]: 3.9 DSS | drug sensitivity score [2]: 0 DSS | drug sensitivity score [3]: 3.2 DSS

COc1cc(O)c2c(c1)/C=C/C[C@H](O)[C@H](O)C(=O)/C=C\C[C@H](C)OC2=O [(5Z)-7-Oxozeaenol]
drug sensitivity score [1]: 3.7 DSS | drug sensitivity score [2]: 2.6 DSS | drug sensitivity score [3]: 3.6 DSS

CCCOc1ccn2c(C(C)=O)cc(-c3ccccc3S(C)(=O)=O)c2c1 [GSK2801]
drug sensitivity score [1]: 0 DSS | drug sensitivity score [2]: 0 DSS | drug sensitivity score [3]: 0 DSS

Cn1cc(-c2ccc3nnc(Sc4ccc5ncccc5c4)n3n2)cn1 [SGX-523]
drug sensitivity score [1]: 0 DSS | drug sensitivity score [3]: 0 DSS

O=C(O)c1ccc(-c2c[nH]c3ncc(-c4ccccc4)cc23)cc1C1CCCC1
drug sensitivity score [1]: 1.9 DSS | drug sensitivity score [2]: 3.3 DSS | drug sensitivity score [3]: 3.4 DSS

Cc1cc(C)c(/C=C2\C(=O)Nc3ccccc32)[nH]1 [Semaxanib]
drug sensitivity score [1]: 0 DSS | drug sensitivity score [2]: 0 DSS | drug sensitivity score [3]: 0.6 DSS

CC(C)N(C[C@H]1O[C@@H](n2cnc3c(N)ncnc32)[C@H](O)[C@@H]1O)[C@H]1C[C@@H](CCc2nc3cc(C(C)(C)C)ccc3[nH]2)C1 [Pinometostat]
drug sensitivity score [1]: 0 DSS | drug sensitivity score [2]: 2.6 DSS | drug sensitivity score [3]: 0 DSS

CNCc1ccc(-c2[nH]c3cc(F)cc4c3c2CCNC4=O)cc1 [Rucaparib]
drug sensitivity score [1]: 0.3 DSS | drug sensitivity score [2]: 3 DSS | drug sensitivity score [3]: 4.6 DSS

Cc1ccc(C(=O)Nc2ccc(Oc3cc4cnn(C)c4cc3-c3cn[nH]c3)c(F)c2)c(=O)n1-c1ccc(F)cc1 [Merestinib]
drug sensitivity score [1]: 4.5 DSS | drug sensitivity score [2]: 5.4 DSS | drug sensitivity score [3]: 4.3 DSS

C[C@@H]1CCN(C(=O)CC#N)C[C@@H]1N(C)c1ncnc2[nH]ccc12 [Tofacitinib]
drug sensitivity score [1]: 0 DSS | drug sensitivity score [2]: 0 DSS | drug sensitivity score [3]: 0 DSS

CC1CCC(n2c3cnccc3c3cnc(Nc4ccc5c(n4)CCN(C(=O)CO)C5)nc32)CC1 (stereo unspecified) [AMG-925]
drug sensitivity score [1]: 1.1 DSS | drug sensitivity score [2]: 0 DSS | drug sensitivity score [3]: 0 DSS

O=C(/C=C\n1cnc(-c2cc(C(F)(F)F)cc(C(F)(F)F)c2)n1)NNc1cnccn1 [Selinexor]
drug sensitivity score [1]: 19.5 DSS | drug sensitivity score [2]: 19.3 DSS | drug sensitivity score [3]: 20.7 DSS

CC(=O)N(O)CCCCCNC(=O)CCC(=O)N(O)CCCCCNC(=O)CCC(=O)N(O)CCCCCN [Deferoxamine]
drug sensitivity score [1]: 8 DSS | drug sensitivity score [3]: 6.1 DSS

C=C(c1ccc(C(=O)O)cc1)c1cc2c(cc1C)C(C)(C)CCC2(C)C [Bexarotene]
drug sensitivity score [1]: 0 DSS | drug sensitivity score [2]: 0 DSS | drug sensitivity score [3]: 0 DSS

Cc1ccccc1C(C(=O)NC1CCCCC1)N(C(=O)Cn1ccnc1C)c1cccc(F)c1 (stereo unspecified) [AGI-5198]
drug sensitivity score [1]: 0 DSS | drug sensitivity score [3]: 3.6 DSS

Cc1cc(-c2nc(-c3ccc(OC(F)(F)F)cc3)no2)nn1Cc1ccnc(N2CCN(C3CC3)CC2)c1 [BAY 87-2243]
drug sensitivity score [1]: 0.3 DSS | drug sensitivity score [2]: 21.9 DSS | drug sensitivity score [3]: 1.1 DSS

CC(C)(C)C[C@@H]1N[C@@H](C(=O)N[C@H]2CC[C@H](O)CC2)[C@H](c2cccc(Cl)c2F)[C@]12C(=O)Nc1cc(Cl)ccc12
drug sensitivity score [1]: 1.3 DSS | drug sensitivity score [2]: 1.9 DSS | drug sensitivity score [3]: 3.3 DSS

CCc1cncnc1N1CCN(Cc2nc3ccc(C(F)(F)F)cc3[nH]2)CC1
drug sensitivity score [1]: 0.3 DSS | drug sensitivity score [2]: 2.9 DSS | drug sensitivity score [3]: 2 DSS

CC[C@@]1(O)C(=O)OCc2c1cc1n(c2=O)Cc2cc3ccccc3nc2-1 [Camptothecin]
drug sensitivity score [1]: 18.4 DSS | drug sensitivity score [2]: 10.3 DSS | drug sensitivity score [3]: 12.6 DSS

CC(C)[C@H](C(=O)Nc1ccc(C(=O)NO)cc1)c1ccccc1 [AR-42]
drug sensitivity score [1]: 19.6 DSS | drug sensitivity score [2]: 12.9 DSS | drug sensitivity score [3]: 10.9 DSS

COc1cc2/c(=N/c3ccc(Br)cc3F)nc[nH]c2cc1OCC1CCN(C)CC1 [Vandetanib]
drug sensitivity score [1]: 2.1 DSS | drug sensitivity score [2]: 5.8 DSS | drug sensitivity score [3]: 5.9 DSS

Nc1cc(F)ccc1NC(=O)/C=C/c1cnn(C/C=C/c2ccccc2)c1 [RGFP966]
drug sensitivity score [1]: 6.3 DSS | drug sensitivity score [2]: 6.3 DSS | drug sensitivity score [3]: 6.8 DSS

CC(=O)c1c(C)c2cnc(Nc3ccc(N4CCNCC4)cn3)nc2n(C2CCCC2)c1=O [Palbociclib]
drug sensitivity score [1]: 10.6 DSS | drug sensitivity score [2]: 10.4 DSS | drug sensitivity score [3]: 6.6 DSS

N#CC(c1ccnc(OCc2ccc(CN3CCOCC3)cc2)n1)c1nc2ccccc2s1 (stereo unspecified) [Bentamapimod]
drug sensitivity score [1]: 2.3 DSS | drug sensitivity score [3]: 4 DSS

CC(=O)[C@]1(O)Cc2c(O)c3c(c(O)c2[C@@H](O[C@H]2C[C@H](N)[C@H](O)[C@H](C)O2)C1)C(=O)c1ccccc1C3=O [Idarubicin]
drug sensitivity score [1]: 11.6 DSS | drug sensitivity score [2]: 9 DSS | drug sensitivity score [3]: 9.4 DSS

Oc1c2ccccc2c2c3c(cccc13)N=N2
drug sensitivity score [1]: 1.8 DSS | drug sensitivity score [2]: 3.4 DSS | drug sensitivity score [3]: 0.6 DSS

CC(C)C[C@H](NC(=O)[C@H](CCc1ccccc1)NC(=O)CN1CCOCC1)C(=O)N[C@@H](Cc1ccccc1)C(=O)N[C@@H](CC(C)C)C(=O)[C@@]1(C)CO1 [Carfilzomib]
drug sensitivity score [1]: 22.9 DSS | drug sensitivity score [2]: 24.5 DSS | drug sensitivity score [3]: 24.6 DSS

Cc1nc(Nc2ncc(C(=O)Nc3c(C)cccc3Cl)s2)cc(N2CCN(CCO)CC2)n1 [Dasatinib]
drug sensitivity score [1]: 0.5 DSS | drug sensitivity score [2]: 6.2 DSS | drug sensitivity score [3]: 2.1 DSS

CCS(=O)(=O)N1CC(CC#N)(n2cc(-c3ncnc4[nH]ccc34)cn2)C1 [Baricitinib]
drug sensitivity score [1]: 0 DSS | drug sensitivity score [2]: 0.3 DSS | drug sensitivity score [3]: 1 DSS

CN(CC(=O)N(Cc1ccc(C2CCCCC2)cc1)c1ccc(C(=O)O)cc1)S(=O)(=O)c1c(F)c(F)c(F)c(F)c1F [SH-4-54]
drug sensitivity score [1]: 9.8 DSS | drug sensitivity score [2]: 8.6 DSS | drug sensitivity score [3]: 9.5 DSS

C[C@]1(c2nc3c(C(N)=O)cccc3[nH]2)CCCN1 [Veliparib]
drug sensitivity score [1]: 0 DSS | drug sensitivity score [2]: 0 DSS | drug sensitivity score [3]: 0 DSS

CC(C)[C@@H](CS(=O)(=O)C(C)C)N1C(=O)[C@@](C)(CC(=O)O)C[C@H](c2cccc(Cl)c2)[C@H]1c1ccc(Cl)cc1 [AMG-232]
drug sensitivity score [1]: 0 DSS | drug sensitivity score [2]: 0 DSS | drug sensitivity score [3]: 0 DSS

COC(=O)c1ccc2c(c1)NC(=O)/C2=C(\Nc1ccc(N(C)C(=O)CN2CCN(C)CC2)cc1)c1ccccc1 [Nintedanib]
drug sensitivity score [1]: 8.4 DSS | drug sensitivity score [2]: 6.8 DSS | drug sensitivity score [3]: 0 DSS

COc1cc(Nc2ncc(F)c(Nc3ccc4c(n3)NC(=O)C(C)(C)O4)n2)cc(OC)c1OC [Tamatinib]
drug sensitivity score [1]: 0.4 DSS | drug sensitivity score [2]: 0.4 DSS | drug sensitivity score [3]: 0 DSS

O=C(Nc1ccncc1)C(=O)c1cn(Cc2ccc(Cl)cc2)c2ccccc12 [Indibulin]
drug sensitivity score [1]: 8.8 DSS | drug sensitivity score [2]: 7.7 DSS | drug sensitivity score [3]: 8.8 DSS

CC(C)n1nc(-c2ccc3oc(N)nc3c2)c2c(N)ncnc21 [MLN-0128]
drug sensitivity score [1]: 14 DSS | drug sensitivity score [2]: 12.3 DSS | drug sensitivity score [3]: 9.8 DSS

CCS(=O)(=O)c1cccc(-c2cc(C(=O)NC3CCN(C)CC3)c(C)c3[nH]c4ncc(C)cc4c23)c1 [TAK-901]
drug sensitivity score [1]: 0.6 DSS | drug sensitivity score [2]: 0 DSS | drug sensitivity score [3]: 2.1 DSS

Cc1cc(C(=O)NOCCO)c(Nc2ccc(I)cc2F)n(C)c1=O [AZD-8330]
drug sensitivity score [1]: 32.4 DSS | drug sensitivity score [2]: 22.9 DSS | drug sensitivity score [3]: 18.4 DSS

C[C@@H]1C[C@H]2O[C@@H]2/C=C\C=C\C(=O)Cc2c(Cl)c(O)cc(O)c2C(=O)O1 [Radicicol]
drug sensitivity score [1]: 13.4 DSS | drug sensitivity score [2]: 12.1 DSS | drug sensitivity score [3]: 12.3 DSS

Reference: the supplement of paper PMC9265050, “Inhibition of RNA Binding in SND1 Increases the Levels of miR-1-3p and Sensitizes Cancer Cells to Navitoclax” (Cancers, 2022)
